ChEMBL document CHEMBL3739333, “Nature of the charged head group dictates the anticancer potential of lithocholic acid-tamoxifen conjugates for breast cancer therapy” (Medchemcomm, 2015)
Values belong to the compound of their own block, whether it stands above or below them. Activity calls are given as the source filed them. The calls are words filed in the database; no cut-off is given here.

Assays:
MDA-MB-231 [1] = assay: Cytotoxicity against human ER negative MDA-MB-231 cells after 48 hrs by MTT assay; format: functional, cell-based; settings: MDA-MB-231, 48 h
MCF7 [2] = assay: Cytotoxicity against human MCF7 cells expressing ER after 48 hrs by MTT assay; format: functional, cell-based; settings: MCF7, 48 h
MDA-MB-468 [3] = assay: Cytotoxicity against human ER negative MDA-MB-468 cells after 48 hrs by MTT assay; format: functional, cell-based; settings: MDA-MB-468, 48 h
T47D [4] = assay: Cytotoxicity against human T47D cells expressing ER after 48 hrs by MTT assay; format: functional, cell-based
[5] = Binding affinity to model membranes using Laurdan-based hydration assessed as changes in generalized polarization after 6 hrs
Lipid bilayer [6] = assay: Binding affinity to DPPC membranes assessed as changes in membrane fluidity of liposomes by measuring fluorescence anisotropy; settings: Liposome; TDE = time-dependent effect
Lipid bilayer [7] = assay: Binding affinity to DPPC membranes assessed as lowering of phase transition temperature
MDA-MB-231 [8] = assay: Cell cycle arrest in human ER negative MDA-MB-231 cells assessed as accumulation of sub-G0 phase after 48 hrs by FACS analysis; format: functional, cell-based
MCF7 [9] = assay: Cell cycle arrest in human MCF7 cells expressing ER assessed as accumulation of sub-G0 phase after 48 hrs by FACS analysis; format: functional, cell-based
MCF7 [10] = assay: Induction of apoptosis in human MCF7 cells expressing ER assessed as change in mitochondrial membrane potential at 10 to 20 uM after 48 hrs using DiOC6 dye based FACS analysis; format: functional, cell-based
MDA-MB-231 [11] = assay: Drug uptake in human ER negative MDA-MB-231 cells; format: ADME, cell-based
MCF7 [12] = assay: Drug uptake in human MCF7 cells expressing ER; format: ADME, cell-based
MDA-MB-231 [13] = assay: Cell cycle arrest in human ER negative MDA-MB-231 cells assessed as accumulation of sub-G0 phase at 20 uM after 48 hrs by FACS analysis relative to control; format: functional
MCF7 [14] = assay: Cell cycle arrest in human MCF7 cells expressing ER assessed as accumulation of sub-G0 phase at 20 uM after 48 hrs by FACS analysis relative to control; format: functional
MDA-MB-231 [15] = assay: Induction of apoptosis in human ER negative MDA-MB-231 cells assessed as change in mitochondrial membrane potential at 10 to 20 uM after 48 hrs using DiOC6 dye based FACS analysis; format: functional, cell-based
MDA-MB-231 [16] = assay: Induction of apoptosis in human ER negative MDA-MB-231 cells assessed as increase of ROS level at 20 uM after 60 mins using DCFDA relative to control; format: functional
[17] = Retention time of the compound by HPLC analysis; format: physicochemical
MDA-MB-231 [18] = assay: Ratio of tamoxifen IC50 to compound IC50 for human ER negative MDA-MB-231 cells after 48 hrs by MTT assay; format: functional
MDA-MB-468 [19] = assay: Ratio of tamoxifen IC50 to compound IC50 for human ER negative MDA-MB-468 cells after 48 hrs by MTT assay; format: functional
MCF7 [20] = assay: Decrease in active-caspase-8 level in human MCF7 cells expressing ER at 10 uM after 48 hrs by Western blot analysis; format: functional, cell-based
MCF7 [21] = assay: Induction of apoptosis in human MCF7 cells expressing ER assessed as increase of ROS level at 20 uM after 60 mins using DCFDA relative to control; format: functional, cell-based
MDA-MB-231 [22] = assay: Induction of apoptosis in human ER negative MDA-MB-231 cells assessed as increase of Bax protein expression at 10 uM after 48 hrs by Western blot analysis; format: functional, cell-based
MDA-MB-231 [23] = assay: Induction of apoptosis in human ER negative MDA-MB-231 cells assessed as decrease of Bcl-2 protein expression at 10 uM after 48 hrs by Western blot analysis; format: functional, cell-based
MDA-MB-231 [24] = assay: Induction of apoptosis in human ER negative MDA-MB-231 cells assessed as effect of Bcl-xL protein expression at 10 uM after 48 hrs by Western blot analysis; format: functional, cell-based
MDA-MB-231 [25] = assay: Induction of apoptosis in human ER negative MDA-MB-231 cells assessed as increase of cleaved caspase 6 level at 10 uM after 48 hrs by Western blot analysis; format: functional, cell-based
MDA-MB-231 [26] = assay: Induction of apoptosis in human ER negative MDA-MB-231 cells assessed as increase of cleaved caspase 7 level at 10 uM after 48 hrs by Western blot analysis; format: functional, cell-based
MDA-MB-231 [27] = assay: Induction of apoptosis in human ER negative MDA-MB-231 cells assessed as increase of cleaved caspase 8 level at 10 uM after 48 hrs by Western blot analysis; format: functional, cell-based
MDA-MB-231 [28] = assay: Induction of apoptosis in human ER negative MDA-MB-231 cells assessed as effect on caspase 9 level at 10 uM after 48 hrs by Western blot analysis; format: functional, cell-based
MCF7 [29] = assay: Induction of apoptosis in human MCF7 cells expressing ER assessed as decrease of Bcl-2 protein expression at 10 uM after 48 hrs by Western blot analysis; format: functional, cell-based
MCF7 [30] = assay: Induction of apoptosis in human MCF7 cells expressing ER assessed as decrease of Bcl-xL protein expression at 10 uM after 48 hrs by Western blot analysis; format: functional, cell-based
MCF7 [31] = assay: Induction of apoptosis in human MCF7 cells expressing ER assessed as effect of Bax protein expression at 10 uM after 48 hrs by Western blot analysis; format: functional, cell-based
MCF7 [32] = assay: Induction of apoptosis in human MCF7 cells expressing ER assessed as effect on caspase 9 level at 10 uM after 48 hrs by Western blot analysis; format: functional, cell-based
MCF7 [33] = assay: Decrease in caspase-6 level in human MCF7 cells expressing ER at 10 uM after 48 hrs by Western blot analysis; format: functional, cell-based
MCF7 [34] = assay: Decrease in caspase-7 level in human MCF7 cells expressing ER at 10 uM after 48 hrs by Western blot analysis; format: functional, cell-based
T47D [35] = assay: Ratio of tamoxifen IC50 to compound IC50 for human ER positive T47D cells after 48 hrs by MTT assay; format: functional
MCF7 [36] = assay: Decrease in pro-caspase-8 level in human MCF7 cells expressing ER at 10 uM after 48 hrs by Western blot analysis; format: functional, cell-based

Activity [5]: inactive
Activity (Lipid bilayer [6]): tde
Activity (Lipid bilayer [7]): Active
SMILES: C[C@H](CCC(=O)O)[C@H]1CC[C@H]2[C@@H]3CC[C@@H]4C[C@H](OC(=O)C[n+]5ccc(N(C)C)cc5)CC[C@]4(C)[C@H]3CC[C@]12C
IC50 (MDA-MB-231 [1]): 13.7 µM
IC50 (MCF7 [2]): 43.4 µM
IC50 (MDA-MB-468 [3]): 9.1 µM
IC50 (T47D [4]): 13.3 µM
Activity (MDA-MB-231 [8]): Dose-dependent effect
Activity (MCF7 [9]): Dose-dependent effect
Activity (MCF7 [10]): inactive

Activity [5]: Active
Activity (Lipid bilayer [6]): tde
SMILES: CC/C(=C(\c1ccccc1)c1ccc(OCCN(C)C(=O)CC[C@@H](C)[C@H]2CC[C@H]3[C@@H]4CC[C@@H]5C[C@H](OC(=O)CN)CC[C@]5(C)[C@H]4CC[C@]23C)cc1)c1ccccc1
IC50 (MDA-MB-231 [1]): > 50 µM
IC50 (MCF7 [2]): > 50 µM
IC50 (MDA-MB-468 [3]): > 50 µM
IC50 (T47D [4]): > 50 µM

Drug uptake (MDA-MB-231 [11]): Active
Drug uptake (MCF7 [12]): Active
SMILES: C[C@H](CCC(=O)NCc1cn(CCNc2ccc([N+](=O)[O-])c3nonc23)nn1)[C@H]1CC[C@H]2[C@@H]3CC[C@@H]4C[C@H](OC(=O)C[n+]5ccc(N(C)C)cc5)CC[C@]4(C)[C@H]3CC[C@]12C.[Cl-]

Activity [5]: inactive
Activity (Lipid bilayer [6]): tde
Activity (Lipid bilayer [7]): inactive
SMILES: CC/C(=C(\c1ccccc1)c1ccc(OCCN(C)C)cc1)c1ccccc1 [TAMOXIFEN]
IC50 (MDA-MB-231 [1]): 27 µM
IC50 (MDA-MB-468 [3]): 15 µM
IC50 (T47D [4]): 29.9 µM
Activity (MDA-MB-231 [8]): Dose-dependent effect
Activity (MCF7 [9]): Dose-dependent effect
fold change (FC) (MDA-MB-231 [13]): 3
fold change (FC) (MCF7 [14]): 2
Activity (MDA-MB-231 [15]): inactive
Activity (MCF7 [10]): inactive
fold change (FC) (MDA-MB-231 [16]): 1.8

Retention_time [17]: 6.735 min
SMILES: CC/C(=C(\c1ccccc1)c1ccc(OCCN(C)C(=O)CC[C@@H](C)[C@H]2CC[C@H]3[C@@H]4CC[C@@H]5C[C@H](OC(=O)C[N+]67CCN(CC6)CC7)CC[C@]5(C)[C@H]4CC[C@]23C)cc1)c1ccccc1.[Cl-]
IC50 (MDA-MB-231 [1]): 20 µM
IC50 (MCF7 [2]): > 50 µM
IC50 (MDA-MB-468 [3]): 20.9 µM
IC50 (T47D [4]): 17.9 µM

Retention_time [17]: 6.676 min
SMILES: CC/C(=C(\c1ccccc1)c1ccc(OCCN(C)C(=O)CC[C@@H](C)[C@H]2CC[C@H]3[C@@H]4CC[C@@H]5C[C@H](OC(=O)C[N+](C)(C)C)CC[C@]5(C)[C@H]4CC[C@]23C)cc1)c1ccccc1.[Cl-]
IC50 (MDA-MB-231 [1]): 18.1 µM
IC50 (MCF7 [2]): 28.9 µM
IC50 (MDA-MB-468 [3]): 15 µM
IC50 (T47D [4]): 8.1 µM

Drug uptake (MDA-MB-231 [11]): Active
Drug uptake (MCF7 [12]): Active
SMILES: CC/C(=C(\c1ccccc1)c1ccc(OCCN(C)c2ccc([N+](=O)[O-])c3nonc23)cc1)c1ccccc1

Retention_time [17]: 6.837 min
Activity [5]: Active
Activity (Lipid bilayer [6]): tde
Activity (Lipid bilayer [7]): Active
SMILES: CC/C(=C(\c1ccccc1)c1ccc(OCCN(C)C(=O)CC[C@@H](C)[C@H]2CC[C@H]3[C@@H]4CC[C@@H]5C[C@H](OC(=O)C[n+]6ccc(N(C)C)cc6)CC[C@]5(C)[C@H]4CC[C@]23C)cc1)c1ccccc1.[Cl-]
IC50 (MDA-MB-231 [1]): 6.5 µM
IC50 (MCF7 [2]): 12.7 µM
IC50 (MDA-MB-468 [3]): 3.13 µM
IC50 (T47D [4]): 7 µM
Ratio IC50 (MDA-MB-231 [18]): 4
Ratio IC50 (MDA-MB-468 [19]): 4
inhibition (MCF7 [20]): Active
Activity (MDA-MB-231 [8]): Dose-dependent effect
Activity (MCF7 [9]): Dose-dependent effect
fold change (FC) (MDA-MB-231 [13]): 5
fold change (FC) (MCF7 [14]): 6
Activity (MDA-MB-231 [15]): Active
Activity (MCF7 [10]): inactive
fold change (FC) (MDA-MB-231 [16]): 2.3
Activity (MCF7 [21]): inactive
Activity (MDA-MB-231 [22]): Active
Activity (MDA-MB-231 [23]): Active
Activity (MDA-MB-231 [24]): inactive
Activity (MDA-MB-231 [25]): Active
Activity (MDA-MB-231 [26]): Active
Activity (MDA-MB-231 [27]): Active
Activity (MDA-MB-231 [28]): inactive
Activity (MCF7 [29]): Active
Activity (MCF7 [30]): Active
Activity (MCF7 [31]): inactive
Activity (MCF7 [32]): inactive
inhibition (MCF7 [33]): Active
inhibition (MCF7 [34]): Active
Ratio IC50 (T47D [35]): 4
inhibition (MCF7 [36]): Active

Retention_time [17]: 6.79 min
SMILES: CC/C(=C(\c1ccccc1)c1ccc(OCCN(C)C(=O)CC[C@@H](C)[C@H]2CC[C@H]3[C@@H]4CC[C@@H]5C[C@H](OC(=O)C[N+]6(C)CCCC6)CC[C@]5(C)[C@H]4CC[C@]23C)cc1)c1ccccc1.[Cl-]
IC50 (MDA-MB-231 [1]): 12.6 µM
IC50 (MCF7 [2]): 24 µM
IC50 (MDA-MB-468 [3]): 6.61 µM
IC50 (T47D [4]): 8.4 µM

Retention_time [17]: 6.741 min
SMILES: CC/C(=C(\c1ccccc1)c1ccc(OCCN(C)C(=O)CC[C@@H](C)[C@H]2CC[C@H]3[C@@H]4CC[C@@H]5C[C@H](OC(=O)C[N+]6(C)CCOCC6)CC[C@]5(C)[C@H]4CC[C@]23C)cc1)c1ccccc1.[Cl-]
IC50 (MDA-MB-231 [1]): 48.2 µM
IC50 (MCF7 [2]): 43.6 µM
IC50 (MDA-MB-468 [3]): 15.3 µM
IC50 (T47D [4]): 45.2 µM

Retention_time [17]: 7.033 min
SMILES: CC/C(=C(\c1ccccc1)c1ccc(OCCN(C)C(=O)CC[C@@H](C)[C@H]2CC[C@H]3[C@@H]4CC[C@@H]5C[C@H](OC(=O)C[n+]6ccccc6)CC[C@]5(C)[C@H]4CC[C@]23C)cc1)c1ccccc1.[Cl-]
IC50 (MDA-MB-231 [1]): 18 µM
IC50 (MCF7 [2]): > 50 µM
IC50 (MDA-MB-468 [3]): 13.6 µM
IC50 (T47D [4]): 17.4 µM

Retention_time [17]: 6.767 min
SMILES: CC/C(=C(\c1ccccc1)c1ccc(OCCN(C)C(=O)CC[C@@H](C)[C@H]2CC[C@H]3[C@@H]4CC[C@@H]5C[C@H](OC(=O)C[N+]6(C)CCCCC6)CC[C@]5(C)[C@H]4CC[C@]23C)cc1)c1ccccc1.[Cl-]
IC50 (MDA-MB-231 [1]): 9.2 µM
IC50 (MCF7 [2]): 24.5 µM
IC50 (MDA-MB-468 [3]): 7.6 µM
IC50 (T47D [4]): 9.8 µM
